These results are taken from PMC10222378 (Pharmaceuticals, 2023).

Several values for one entry are separate records, joined by “and”; a condition that tells them apart may be missing. Equal values may be shown once. Entries after “also recorded” stand apart in the source; their conditions may differ. Read-outs that look alike come from different tables or passages of the source.

Data set [1] concerns hKV1.1, hKV1.4-IR, hKV1.5, hKV10.1, hKV11.1, hKCa3.1, hNaV1.4, hNaV1.5. Nature of the data set: in vitro. The following applies: human.
In data set [2] the target is T1, hKV1.5 (Homo sapiens, UniProt P22460).
T1 construct: EYFP (pEYFP vector); expressed in transfected cells; host or cells: CHO cells, transient
Nature of the data set: Whole-cell patch clamp on hKV1.5 in CHO cells. Type of data set: cell-based. The settings on record: estimated from single concentration (200 μM), bimolecular interaction assumed, n = 4, read-out: estimated Kd. The text has this:
(§1) Pulses were delivered every 30 s. […] […]. Red dashed line indicates no effect.
(§2) In general, the holding potential was −120 mV.
(§3) […]. […] […].
(§4) […]. All data are presented as means ± SEM.

Data set [3] concerns the target voltage-gated proton (H+) channel (HV1). Also on record: method as in PMID 24912149. The following applies: known HV1 inhibitor, value quoted in abstract; amphibian expression system; cited from earlier work.
Data set [4] deals with T2, hNaV1.5 (Homo sapiens, UniProt Q14524).
T2 construct: expressed in transfected cells; host or cells: CHO cells, transient
Nature of the data set: Whole-cell patch clamp on hNaV1.5 in CHO cells. It is filed as cell-based. The following applies: estimated from single concentration (200 μM), bimolecular interaction assumed, n = 6, read-out: estimated Kd.
Text: as §1, §2, §3, §4

Data set [5] concerns the target T3, hKV10.1 (Homo sapiens, UniProt O95259).
T3 construct: host or cells: CHO cells, transient, co-transfected with a separate GFP plasmid
T3 sequence (O95259 1-989): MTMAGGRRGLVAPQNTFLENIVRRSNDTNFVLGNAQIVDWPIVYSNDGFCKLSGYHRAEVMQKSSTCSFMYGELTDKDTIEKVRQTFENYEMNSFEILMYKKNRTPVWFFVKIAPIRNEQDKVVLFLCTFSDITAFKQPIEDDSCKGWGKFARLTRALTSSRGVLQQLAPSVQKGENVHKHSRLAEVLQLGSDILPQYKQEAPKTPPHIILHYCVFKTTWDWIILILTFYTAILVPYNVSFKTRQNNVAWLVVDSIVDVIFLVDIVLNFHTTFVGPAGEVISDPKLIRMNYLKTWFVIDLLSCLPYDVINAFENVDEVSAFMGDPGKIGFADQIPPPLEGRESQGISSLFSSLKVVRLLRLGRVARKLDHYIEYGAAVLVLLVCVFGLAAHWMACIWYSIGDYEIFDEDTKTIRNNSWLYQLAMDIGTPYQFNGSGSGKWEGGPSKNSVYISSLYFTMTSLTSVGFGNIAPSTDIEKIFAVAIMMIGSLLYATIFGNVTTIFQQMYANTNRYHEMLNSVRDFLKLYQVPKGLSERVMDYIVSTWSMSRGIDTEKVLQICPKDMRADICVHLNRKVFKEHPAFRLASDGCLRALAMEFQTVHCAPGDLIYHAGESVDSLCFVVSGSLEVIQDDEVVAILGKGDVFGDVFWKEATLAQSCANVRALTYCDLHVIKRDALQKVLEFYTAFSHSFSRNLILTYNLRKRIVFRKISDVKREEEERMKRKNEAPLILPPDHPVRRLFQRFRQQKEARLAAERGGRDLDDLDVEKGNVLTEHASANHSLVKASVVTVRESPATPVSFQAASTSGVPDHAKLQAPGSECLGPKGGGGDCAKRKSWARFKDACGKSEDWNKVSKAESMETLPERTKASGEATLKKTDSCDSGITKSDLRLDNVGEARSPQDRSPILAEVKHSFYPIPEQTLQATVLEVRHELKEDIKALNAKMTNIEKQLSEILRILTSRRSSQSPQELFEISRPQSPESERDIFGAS
Description: Whole-cell patch clamp on hKV10.1 in CHO cells. Type of data set: cell-based. The settings on record: estimated from single concentration (200 μM), bimolecular interaction assumed, n = 5, read-out: estimated Kd.
Text: as §1, §2, §3, §4

Data set [6] concerns the target hKV11.1 (hERG) (Homo sapiens, UniProt Q12809). Nature of the data set: in vitro. The settings on record: HEK293 cells stably expressing hKV11.1 (hERG), pH 7.35. Background: hERG is a cardiac potassium channel; its block is linked to QT prolongation.
Data set [7] has as its system human lymphocytes. Description: CFSE lymphocyte proliferation assay after PHA activation. Type of data set: cell-based. The settings on record: 200 μM ClGBI. The protocol:
In this method, following the loading of cells with CFSE dye, each round of cell division is apparent by the reduced dye content and consequent lower fluorescence intensity of the daughter cells. […] Peripheral blood mononuclear cells (PBMCs) were isolated from the heparinized blood of healthy donors (n = 3) using the Ficoll–Hypaque separation method. […] The cells were grown in a humidified chamber at 37 °C and 5% CO2 for 6 days. As a negative control, unstimulated CFSE-labeled PBMCs were cultured in the same condition. […] After 6 days of proliferation, the CFSE-labeled cells were collected and analyzed by flow cytometry in an ACEA NovoCyte 2000R cytometer (Agilent, Santa Clara, CA, USA).

In data set [8] the target is T4, hKCa3.1 (Homo sapiens, UniProt O15554).
T4 construct: expressed in transfected cells; host or cells: CHO cells, transient
Nature of the data set: Whole-cell patch clamp on hKCa3.1 in CHO cells. It is filed as cell-based.
Text: as §1, §2, §3, §4
On the technique in general: In patch-clamp work, channel activity is measured electrically.

Data set [9] has as its target T5, hNaV1.4 (Homo sapiens, UniProt P35499).
T5 construct: expressed in transfected cells
Nature of the data set: Whole-cell patch clamp on hNaV1.4 stably expressed in HEK293 cells. The following applies: estimated from single concentration (200 μM), bimolecular interaction assumed, n = 4, read-out: estimated Kd. Type of data set: cell-based.
Text: as §1, §2, §3, §4

The target of data set [10] is T6, hKV1.1 (Homo sapiens, UniProt Q09470). Description: Whole-cell patch clamp on hKV1.1 in CHO cells. It is filed as cell-based. Also on record: host or cells: CHO cells, transient. The following applies: estimated from single concentration (200 μM), bimolecular interaction assumed, n = 5, read-out: estimated Kd.
Text: as §1, §2, §3, §4

The target of data set [11] is T7, hKV1.3 (Homo sapiens, UniProt P22001). Nature of the data set: Whole-cell patch clamp on hKV1.3 in activated human lymphocytes. It is filed as cell-based. Also on record: endogenous in cells.
Text: The essential role of voltage-gated KV1.3 channels in T cell activation and proliferation is well-documented, so we tested whether the proliferation was suppressed in part via a KV1.3 blockade. […]. The open probability of the channel at +50 mV is maximal, and the relatively short duration of the depolarizing periods prevented inactivation. The time between voltage pulses was set to 15 s to avoid the cumulative inactivation of hKV1.3 channels. Under the given experimental conditions (i.e., the voltage protocol used and the lack of Ca^2+ in the pipette solution), the whole-cell currents were conducted exclusively by hKV1.3 channels. […]. Human peripheral blood […] (PBMCs) were isolated from venous blood obtained from anonymized healthy donors. The peripheral blood mononuclear cells were isolated by Histopaque1077 (Sigma-Aldrich Hungary, Budapest, Hungary) density gradient centrifugation. The cells obtained were resuspended in Roswell Park Memorial Institute (RPMI) 1640 medium (Gibco, Cat# 11875085) containing 10% fetal calf serum (FCS, Sigma-Aldrich, St. Louis, MO, USA), 100 μg/mL penicillin, 100 μg/mL streptomycin, and 2 mM L-glutamine, seeded in a 24-well culture plate at a density of 5–6 × 10^5 cells/mL, and grown in a 5% CO2 incubator at 37 °C for 3–5 days. Phytohemagglutinin A (PHA, Sigma-Aldrich, St. Louis, MO, USA) was also added at a concentration of 8–12 μg/mL to the medium to amplify the expression level of KV1.3. CHO cells and PBMCs were gently washed twice with 2 mL of ECS (see below) for the patch clamp experiments. hKV1.3 currents were recorded on activated lymphocytes 3 to 4 days after activation.
as §2, §3, §4
To examine the binding kinetics, RCF was plotted as a function of time. The association time constant (τon) was determined by fitting the data points with a single exponential function, RCF=RCF0×e^−t/τon+C where RCF0 is the RCF value before the addition of the drug, and C is a constant term.

Data set [12] concerns the target hKV1.4-IR (Homo sapiens, UniProt P22459). Description: Whole-cell patch clamp on hKV1.4-IR in CHO cells. It is filed as cell-based. The settings on record: estimated from single concentration (200 μM), bimolecular interaction assumed, n = 6, read-out: estimated Kd.
Text: as §1, §2, §3, §4

The target in data set [13] is T7, hKV1.3. The following applies: read-out: Kd (concentration of positive control equivalent to its Kd), no reference given; cited from earlier work.
For data set [14], the target named is T6, hKV1.1. The settings on record: read-out: Kd (concentration of positive control equivalent to its Kd), no reference given; cited from earlier work.

T7 sequence (P22001 whole entry): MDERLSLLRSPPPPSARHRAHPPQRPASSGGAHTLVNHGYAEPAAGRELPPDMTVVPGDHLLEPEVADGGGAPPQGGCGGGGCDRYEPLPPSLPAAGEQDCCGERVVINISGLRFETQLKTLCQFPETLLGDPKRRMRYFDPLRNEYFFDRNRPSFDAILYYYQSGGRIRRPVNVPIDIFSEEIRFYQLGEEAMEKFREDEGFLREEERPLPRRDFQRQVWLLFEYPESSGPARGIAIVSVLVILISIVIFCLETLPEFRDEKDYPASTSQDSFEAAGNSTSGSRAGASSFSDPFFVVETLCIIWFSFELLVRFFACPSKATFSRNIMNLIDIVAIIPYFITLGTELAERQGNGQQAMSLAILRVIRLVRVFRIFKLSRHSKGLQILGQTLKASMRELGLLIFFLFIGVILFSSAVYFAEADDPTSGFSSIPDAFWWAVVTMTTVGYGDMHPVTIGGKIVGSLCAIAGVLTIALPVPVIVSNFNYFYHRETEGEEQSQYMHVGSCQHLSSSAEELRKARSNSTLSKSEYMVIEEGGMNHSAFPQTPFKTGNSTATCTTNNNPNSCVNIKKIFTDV
T6 sequence (Q09470 whole entry): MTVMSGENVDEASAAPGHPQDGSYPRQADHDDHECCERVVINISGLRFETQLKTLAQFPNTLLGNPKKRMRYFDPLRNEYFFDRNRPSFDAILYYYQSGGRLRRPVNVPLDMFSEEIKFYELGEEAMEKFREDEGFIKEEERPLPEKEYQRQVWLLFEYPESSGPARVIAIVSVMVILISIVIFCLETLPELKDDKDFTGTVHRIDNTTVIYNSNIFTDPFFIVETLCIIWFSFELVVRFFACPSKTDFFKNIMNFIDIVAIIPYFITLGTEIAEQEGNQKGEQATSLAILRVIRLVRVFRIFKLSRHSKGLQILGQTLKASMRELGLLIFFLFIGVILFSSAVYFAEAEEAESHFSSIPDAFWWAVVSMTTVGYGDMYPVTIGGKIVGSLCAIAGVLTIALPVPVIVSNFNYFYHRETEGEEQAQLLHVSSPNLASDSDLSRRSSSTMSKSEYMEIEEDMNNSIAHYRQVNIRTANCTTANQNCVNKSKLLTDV
hKV11.1 (hERG), sequence (Q12809 whole entry): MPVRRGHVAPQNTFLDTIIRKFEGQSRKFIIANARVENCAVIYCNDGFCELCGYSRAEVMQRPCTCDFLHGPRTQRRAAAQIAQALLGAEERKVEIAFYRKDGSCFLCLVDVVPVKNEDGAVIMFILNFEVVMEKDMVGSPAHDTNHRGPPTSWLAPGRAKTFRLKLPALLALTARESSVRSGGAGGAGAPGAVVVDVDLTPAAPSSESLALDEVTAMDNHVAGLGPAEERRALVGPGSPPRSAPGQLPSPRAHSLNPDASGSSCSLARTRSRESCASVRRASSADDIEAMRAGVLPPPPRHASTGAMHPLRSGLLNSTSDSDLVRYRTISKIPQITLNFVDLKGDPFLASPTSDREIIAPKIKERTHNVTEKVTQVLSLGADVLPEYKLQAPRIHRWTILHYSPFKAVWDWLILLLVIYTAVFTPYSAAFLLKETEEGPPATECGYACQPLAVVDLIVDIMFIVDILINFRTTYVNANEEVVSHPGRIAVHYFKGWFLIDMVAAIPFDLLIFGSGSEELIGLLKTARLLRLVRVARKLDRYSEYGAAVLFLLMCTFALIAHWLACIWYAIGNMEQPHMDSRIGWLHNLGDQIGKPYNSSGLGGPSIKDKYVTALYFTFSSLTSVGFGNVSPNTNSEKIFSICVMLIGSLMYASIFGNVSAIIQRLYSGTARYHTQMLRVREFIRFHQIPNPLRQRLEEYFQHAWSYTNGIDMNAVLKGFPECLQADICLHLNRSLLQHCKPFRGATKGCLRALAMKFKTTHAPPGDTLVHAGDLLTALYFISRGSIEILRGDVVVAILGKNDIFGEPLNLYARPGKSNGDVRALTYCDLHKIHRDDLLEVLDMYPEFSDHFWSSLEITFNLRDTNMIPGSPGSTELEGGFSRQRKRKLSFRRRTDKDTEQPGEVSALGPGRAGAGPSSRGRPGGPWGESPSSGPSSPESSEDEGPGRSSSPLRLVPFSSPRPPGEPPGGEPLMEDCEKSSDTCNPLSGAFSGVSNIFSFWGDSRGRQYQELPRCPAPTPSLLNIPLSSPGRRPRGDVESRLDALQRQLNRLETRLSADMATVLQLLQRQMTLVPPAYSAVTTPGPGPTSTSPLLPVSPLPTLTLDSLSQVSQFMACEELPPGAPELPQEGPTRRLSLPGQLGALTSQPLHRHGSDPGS
hKV1.4-IR, sequence (P22459 149-653 limits assumed): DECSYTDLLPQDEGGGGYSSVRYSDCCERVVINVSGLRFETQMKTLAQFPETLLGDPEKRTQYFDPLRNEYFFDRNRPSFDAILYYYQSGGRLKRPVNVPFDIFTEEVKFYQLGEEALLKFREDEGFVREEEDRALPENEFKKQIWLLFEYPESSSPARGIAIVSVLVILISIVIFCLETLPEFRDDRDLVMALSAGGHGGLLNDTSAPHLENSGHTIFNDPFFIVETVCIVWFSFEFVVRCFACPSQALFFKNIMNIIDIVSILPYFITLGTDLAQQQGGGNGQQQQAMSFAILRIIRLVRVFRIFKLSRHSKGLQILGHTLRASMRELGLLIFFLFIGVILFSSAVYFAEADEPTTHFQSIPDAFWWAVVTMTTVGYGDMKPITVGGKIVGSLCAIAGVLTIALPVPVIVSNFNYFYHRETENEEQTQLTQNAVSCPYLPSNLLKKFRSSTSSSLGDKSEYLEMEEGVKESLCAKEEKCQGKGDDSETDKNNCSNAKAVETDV
T2 sequence (Q14524 whole entry): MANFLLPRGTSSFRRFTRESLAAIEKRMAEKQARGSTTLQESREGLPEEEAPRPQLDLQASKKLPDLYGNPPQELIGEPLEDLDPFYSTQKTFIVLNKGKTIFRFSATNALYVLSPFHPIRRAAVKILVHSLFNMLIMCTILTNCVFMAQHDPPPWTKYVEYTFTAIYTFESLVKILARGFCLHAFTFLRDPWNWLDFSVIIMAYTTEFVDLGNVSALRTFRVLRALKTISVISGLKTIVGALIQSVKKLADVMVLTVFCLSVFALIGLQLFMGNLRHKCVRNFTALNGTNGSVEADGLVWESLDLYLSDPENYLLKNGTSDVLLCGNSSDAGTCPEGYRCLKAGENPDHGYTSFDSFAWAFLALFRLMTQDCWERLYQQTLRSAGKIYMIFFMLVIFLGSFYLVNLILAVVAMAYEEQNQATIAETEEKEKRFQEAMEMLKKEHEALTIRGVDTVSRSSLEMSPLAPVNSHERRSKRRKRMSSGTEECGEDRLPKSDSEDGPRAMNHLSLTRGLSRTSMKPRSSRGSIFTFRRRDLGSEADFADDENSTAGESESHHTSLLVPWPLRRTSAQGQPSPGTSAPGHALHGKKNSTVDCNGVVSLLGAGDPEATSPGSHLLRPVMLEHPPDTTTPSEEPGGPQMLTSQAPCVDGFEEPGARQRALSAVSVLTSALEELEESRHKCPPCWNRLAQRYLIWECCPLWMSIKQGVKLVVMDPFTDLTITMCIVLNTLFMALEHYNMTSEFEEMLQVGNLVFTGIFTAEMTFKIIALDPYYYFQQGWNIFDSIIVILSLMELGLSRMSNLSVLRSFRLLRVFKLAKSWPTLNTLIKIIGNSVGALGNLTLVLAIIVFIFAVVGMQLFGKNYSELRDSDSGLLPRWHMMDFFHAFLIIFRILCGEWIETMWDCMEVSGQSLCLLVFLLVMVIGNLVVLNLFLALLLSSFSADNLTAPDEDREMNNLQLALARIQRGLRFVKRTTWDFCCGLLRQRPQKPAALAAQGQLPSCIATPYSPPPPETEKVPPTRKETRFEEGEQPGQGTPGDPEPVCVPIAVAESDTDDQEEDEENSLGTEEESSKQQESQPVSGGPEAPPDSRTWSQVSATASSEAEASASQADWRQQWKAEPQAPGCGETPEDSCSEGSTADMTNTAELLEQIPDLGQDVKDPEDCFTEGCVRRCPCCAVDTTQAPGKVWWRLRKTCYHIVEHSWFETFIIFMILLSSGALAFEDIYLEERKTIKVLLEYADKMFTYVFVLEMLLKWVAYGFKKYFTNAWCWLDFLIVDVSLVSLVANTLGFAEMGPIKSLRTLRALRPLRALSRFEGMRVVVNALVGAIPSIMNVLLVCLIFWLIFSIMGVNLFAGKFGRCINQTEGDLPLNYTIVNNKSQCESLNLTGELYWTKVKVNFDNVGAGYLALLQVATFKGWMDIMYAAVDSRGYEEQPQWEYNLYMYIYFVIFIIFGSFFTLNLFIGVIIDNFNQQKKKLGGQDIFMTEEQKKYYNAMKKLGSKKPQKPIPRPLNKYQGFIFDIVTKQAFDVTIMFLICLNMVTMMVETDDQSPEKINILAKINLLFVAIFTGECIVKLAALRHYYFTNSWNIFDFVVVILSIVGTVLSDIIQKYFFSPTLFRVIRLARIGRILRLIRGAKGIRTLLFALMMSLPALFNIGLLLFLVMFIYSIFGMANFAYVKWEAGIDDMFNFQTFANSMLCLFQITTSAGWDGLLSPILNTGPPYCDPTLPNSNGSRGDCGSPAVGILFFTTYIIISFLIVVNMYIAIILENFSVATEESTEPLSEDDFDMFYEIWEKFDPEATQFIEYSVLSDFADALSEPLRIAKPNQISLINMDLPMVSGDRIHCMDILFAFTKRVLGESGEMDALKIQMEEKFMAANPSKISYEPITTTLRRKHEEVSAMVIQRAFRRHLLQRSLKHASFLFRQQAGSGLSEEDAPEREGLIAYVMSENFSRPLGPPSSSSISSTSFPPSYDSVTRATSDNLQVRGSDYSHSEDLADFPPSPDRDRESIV

On to `N=C(N)Nc1nc2ccc(Cl)cc2[nH]1` [ClGBI, 5-chloro-2-guanidinobenzimidazole], for which the Kd in [1] is 12 to 894 µM; in [3], ~26 µM; in data set [11] (two-parameter Hill fit of RCF dose-response, human lymphocytes) it was 72.4 µM and ~72 µM. Moreover, the potency estimated from few doses is 310 ± 43.6 µM in [2]; 187 ± 35.7 µM in data set [4]; 77.5 ± 14.2 µM in [5]; 12 ± 2.1 µM in data set [6]; 894 ± 134 µM in data set [8] (CHO, estimated from single concentration (200 μM), bimolecular interaction assumed, n = 5, read-out: estimated Kd); 591 ± 123 µM in data set [9]. Further, the potency estimated from few doses in data set [10] is 324 ± 13.1 µM; in [12] it was 188 ± 38 µM. Moreover, the “effect on lymphocyte proliferation” value in [7] was “completely blocked; also recorded: significant suppression”. Also, the “inhibition of KCa3.1” value in data set [8] (200 μM ClGBI) was “inhibited KCa3.1 to a small extent”. Besides, in data set [11] (200 μM ClGBI), the “time to reach block saturation” value is 50 to 100 s. The “reduction in current amplitude” value in data set [11] (200 μM ClGBI, equilibrium block) was ~ 75%. For the same molecule, the “remaining current fraction (RCF)” value in data set [11] (200 μM ClGBI, equilibrium block, n = 9) is reported as 0.25 ± 0.01. Further, in data set [11] (200 μM ClGBI, single exponential fit, n = 3), the “association time constant τon” value came out at 22.1 ± 2.7 s. Also, the “reversibility of block on washout” value in data set [11] (after 200 μM ClGBI, perfusion with ClGBI-free ECS) is “complete recovery from block; also recorded: complete recovery from current inhibition”. Moreover, in [11] (two-parameter Hill fit of RCF dose-response), the “Hill coefficient nH” value is listed as 1.1 ± 0.07.
Regarding `CC[N+](CC)(CC)CC` [TEA^+, tetraethylammonium], the Kd is 10000 µM in data set [13] and 300 µM in data set [14].
